In data set [1] the target is T1, MIOX from hog kidney (Sus scrofa, UniProt Q8WN98).
T1 sequence (Q8WN98 1-282): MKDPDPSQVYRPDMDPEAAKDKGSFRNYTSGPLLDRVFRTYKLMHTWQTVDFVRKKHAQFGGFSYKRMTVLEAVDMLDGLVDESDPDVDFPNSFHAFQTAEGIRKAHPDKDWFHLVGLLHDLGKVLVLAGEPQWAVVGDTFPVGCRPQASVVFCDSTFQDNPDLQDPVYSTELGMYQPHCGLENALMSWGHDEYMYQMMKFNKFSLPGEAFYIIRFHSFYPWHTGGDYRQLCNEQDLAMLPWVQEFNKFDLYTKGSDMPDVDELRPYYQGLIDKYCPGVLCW
The conditions noted are these: cited from earlier work; for inhibition of MIOX from hog kidney in vitro: reported (30, 31); for inhibition of MIOX activity: at high concentrations, reported previously (30, 31).

In data set [2] the target is T2, uronate dehydrogenase from A. tumefaciens (Agrobacterium fabrum, UniProt Q7CRQ0).
T2 construct: 6xHis (C); made in house; host or cells: E. coli BL21 (DE3)
Kind of data set: Kinetic analysis of purified Udh (initial NADH generation at 340 nm). It counts as biochemical, Agrobacterium tumefaciens str. C58. The conditions noted are these: for kcat / Km: purified 6×His Udh, 0 to 10 mM substrate, 1.2 mM NAD^+. How it is done: (§1) The udh genes from genomic DNA of A. tumefaciens, P. putida, and P. syringae were amplified using primers ATuEQ-F/R, PPuEQ-F/R, and PSuEQ-F/R as listed in Table 4. The PCR products were digested with SacI and HindIII and inserted into the same sites of pET21b containing a 6×His-Tag to construct pETATu, pETPPu, and pETPSu, respectively (Table 4). These plasmids were used to transform E. coli BL21 (DE3) to use for protein expression. The recombinant E. coli BL21 strains were cultivated at 30° C., 250 rpm for 6 hours after IPTG induction. Protein purification was carried out using the ProBond™ Purification System as described by the manufacturer (Invitrogen Corp, Carlsbad, Calif., USA). SDS-PAGE (sodium dodecyl sulfate-polyacrylamide gel electrophoresis) was performed as described in Sambrook et. al. (35). Enzyme activities on substrates of purified proteins were measured by monitoring initial NADH generation at 340 nm and room temperature. Kinetic analysis on glucuronate and galacturonate was carried out using 0 to 10 mM glucuronate or galacturonate and 1.2 mM NAD^+ in 100 mM Tris-HCl, pH 8.0. Kinetic analysis on NAD^+ was performed using 0 to 2 mM NAD^+ and 10 mM glucuronate in 100 mM Tris-HCl, pH 8.0. A series of enzymatic assays were conducted to estimate the initial activity as a function of starting substrate concentration. […] Nonlinear least-squares regression analyses were performed via the Gauss-Newton method as implemented using the intrinsic Matlab® function nlinfit.

In data set [3] the target is T3, uronate dehydrogenase from P. putida (Pseudomonas putida, UniProt Q88NN6).
T3 construct: 6xHis (C); made in house; host or cells: E. coli BL21 (DE3)
Described as above. The settings on record: purified 6×His Udh, 0 to 10 mM substrate, 1.2 mM NAD^+. Format: biochemical, Pseudomonas putida KT2440. On the procedure:
as §1

The target of data set [4] is T4, uronate dehydrogenase from P. syringae (Pseudomonas syringae pv. tomato, UniProt Q888H1).
T4 construct: 6xHis (C); made in house; host or cells: E. coli BL21 (DE3)
Described as above. Format: biochemical, Pseudomonas syringae pv. tomato str. DC3000. The settings on record: purified 6×His Udh, 0 to 10 mM substrate, 1.2 mM NAD^+. How it is done:
as §1

Data set [5] concerns the target T5, uronate dehydrogenase (Udh) of P. syringae (Pseudomonas syringae pv. tomato, UniProt Q888H1).
T5 construct: made in house; host or cells: E. coli (DH10B or BL21(DE3)); crude lysate, not purified
The experiment in a line: Udh activity in crude E. coli lysates (NADH generation at 340 nm). Format: biochemical. The conditions noted are these: crude E. coli lysates containing the P. syringae udh gene; data not shown. On the procedure: Assays for uronate dehydrogenase activity were performed by monitoring NADH co-factor generation at 340 nm as described previously (35, 40). The reaction mixture contained 100 mM sodium phosphate buffer (pH 8.0), 2.5 mM glucuronic acid, 0.9 mM NAD^+, and bacterial lysate prepared as described above.
Bacterial lysates for enzymatic analysis were prepared by the freeze-thaw method. E. coli strains harboring udh genes were grown overnight in LB medium containing 0.1 mM IPTG (Isopropyl β-D-1-thiogalactopyranoside). Pellets were re-suspended in 1 mg/mL lysozyme solution and incubated on ice for 30 min. The suspensions were frozen in liquid nitrogen then thawed in a 37° C. water bath. This step was repeated five times. Cell lysates were centrifuged at 14,000 rpm at 4° C. for 15 min, and the supernatant was used for enzymatic analysis. Udh activities on glucuronate were measured by monitoring NADH (nicotinamide adenine dinucleotide, reduced) generation at 340 nm (38). The reaction mixture was consisted of 2.5 mM glucuronate, 0.9 mM NAD^+ (nicotinamide adenine dinucleotide), and 100 mM sodium phosphate buffer. The reaction was initiated by the addition of lysate to the reaction mixture at room temperature, and monitored. […] The total protein concentration was determined using the Bradford method (Bradford (1976) Anal Biochem 72:248-54). […]

For data set [6], the system named is E. coli. Kind of data set: E. coli growth and glucose consumption with added organic acid salts. It counts as cell-based, Escherichia coli. The settings on record: added at concentrations as high as 10 g/L; data not shown.
The nature of data set [7]: Thermal stability of purified Udhs (30 minutes at temperature, then standard assay). Format: physicochemical. The settings on record: purified Udh, FIG. 10b. On the procedure:
The impact of temperature was evaluated in two ways. First, the thermal stability was examined by exposing enzyme preparations to various temperatures for 30 minutes, then performing the enzyme assay under standard conditions. […] The activity remained near 80% of maximum after exposure of the A. tumefaciens preparation to 37° C., while the corresponding activities for both of the other enzymes was below 20% of maximum. The stability profiles for both Pseudomonas enzymes were similar to one another. Finally, enzyme activity was evaluated for assays conducted under increasing temperatures. These activities followed a general trend of increasing activity with increasing temperature between 4 and 42° C., which is consistent with an Arrhenius-type dependence of the catalytic rate constant on temperature (FIG. 10c).

Setting [8] is: 100 mM Tris-HCl pH 8.0, room temperature.

“And” between values parts separate entries of the source, which are not always exact repeats. Equal values may be shown once. Read-outs that look alike come from different tables or passages of the source.

The values that follow come from US8835147B2, “Cellular production of glucaric acid through recombinant expression of uronate dehydrogenase and myo-inositol oxygenase” (Massachusetts Institute of Technology, priority 2008, dated 2014).

T3 sequence (Q88NN6 whole entry): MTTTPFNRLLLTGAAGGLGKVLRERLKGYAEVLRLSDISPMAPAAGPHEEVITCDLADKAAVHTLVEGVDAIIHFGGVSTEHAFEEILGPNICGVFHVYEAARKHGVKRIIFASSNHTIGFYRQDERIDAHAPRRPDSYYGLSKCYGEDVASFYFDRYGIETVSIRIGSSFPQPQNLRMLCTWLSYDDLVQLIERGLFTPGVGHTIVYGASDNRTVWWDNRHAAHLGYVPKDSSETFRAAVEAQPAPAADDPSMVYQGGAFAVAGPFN
T4 sequence (Q888H1 whole entry): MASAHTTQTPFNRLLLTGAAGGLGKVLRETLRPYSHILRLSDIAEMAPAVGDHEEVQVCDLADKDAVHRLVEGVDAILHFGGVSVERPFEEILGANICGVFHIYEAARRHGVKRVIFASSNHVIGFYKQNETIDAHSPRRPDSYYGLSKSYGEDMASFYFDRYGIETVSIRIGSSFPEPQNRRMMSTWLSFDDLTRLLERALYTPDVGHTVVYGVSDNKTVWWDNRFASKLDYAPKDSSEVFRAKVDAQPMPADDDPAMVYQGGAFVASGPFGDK
T5 sequence (Q888H1 whole entry): as above

For the molecule `O=C(O)[C@@H](O)[C@@H](O)[C@H](O)[C@@H](O)C(=O)O` [D-glucaric acid], in data set [1], the “inhibition of MIOX from hog kidney in vitro” value (“inhibition of MIOX … in vitro” for short) was “inhibited”.

On to `O=C[C@H](O)[C@H]1OC(=O)[C@@H](O)[C@H]1O` [D-glucuronolactone], for which, in data set [1], the “inhibition of MIOX … in vitro” value is “not”.

As to `[Fe+2]` [Fe^2+], the “inhibition of MIOX activity” value in data set [1] is listed as “inhibited”.

For the molecule `O=C(O)[C@H]1O[C@H](O)[C@H](O)[C@@H](O)[C@H]1O` [Galacturonate, galacturonate], the kcat (usually the maximal rate divided by the concentration of active sites) in data set [2] (setting [8]) is 92 ± 14 s⁻¹ and 91.85 ± 14.26 s⁻¹; in data set [2] (pH 8.0), 0.9 ± 0.14 10^2 · 1/s; in data set [3] (setting [8]), 30 ± 3 s⁻¹ and 30.08 ± 3.12 s⁻¹; in data set [3] (pH 8.0), 0.3 ± 0.03 10^2 · 1/s; in data set [4] (setting [8]) it was 24 ± 1 s⁻¹ and 24.02 ± 0.73 s⁻¹; in data set [4] (pH 8.0), 0.2 ± 0.01 10^2 · 1/s. In addition, the Michaelis constant (Km) (usually the concentration of substrate that gives half-maximal velocity) stood at 160 ± 120 µM in data set [2] (pH 8.0), 100 ± 60 µM in data set [3] (pH 8.0) and 40 µM in data set [4] (pH 8.0).

As for `O=C(O)[C@H]1O[C@@H](O)[C@H](O)[C@@H](O)[C@@H]1O` [Glucuronate, glucuronate], the “kcat (highest rate constant)” value in data set [2] was 190 s⁻¹; in data set [2] (unit not given), 1.9×10^2. Also, in data set [2] (glucuronate as substrate), the “kcat of A. tumefaciens enzyme relative to the Pseudomonas enzymes” value is “more than 2 fold”. The kcat in data set [2] (setting [8]) is 194 ± 12 s⁻¹ and 193.90 ± 11.84 s⁻¹; in data set [2] (pH 8.0), 1.9 ± 0.12 10^2 · 1/s; in data set [3] (setting [8]), 55 ± 3 s⁻¹ and 54.57 ± 2.60 s⁻¹; in data set [3] (pH 8.0) it was 0.5 ± 0.03 10^2 · 1/s; in data set [4] (setting [8]), 74 ± 3 s⁻¹ and 73.77 ± 3.13 s⁻¹; in data set [4] (pH 8.0), 0.7 ± 0.03 10^2 · 1/s. Besides, the Km in data set [2] (pH 8.0) turned out to be 370 ± 120 µM; in data set [3] (pH 8.0) it was 250 ± 70 µM; in data set [4] (pH 8.0), 280 ± 70 µM. Moreover, the “inhibition of MIOX … in vitro” value in data set [1] was “not”.

For the molecule `NC(=O)c1ccc[n+]([C@@H]2O[C@H](COP(=O)([O-])OP(=O)(O)OC[C@H]3O[C@@H](n4cnc5c(N)ncnc54)[C@H](OP(=O)(O)O)[C@@H]3O)[C@@H](O)[C@H]2O)c1` [NADP^+], the “utilization as a co-factor” value in data set [5] was “not”.

For the molecule `NC(=O)c1ccc[n+]([C@@H]2O[C@H](COP(=O)([O-])OP(=O)(O)OC[C@H]3O[C@@H](n4cnc5c(N)ncnc54)[C@H](O)[C@@H]3O)[C@@H](O)[C@H]2O)c1` [NAD^+, nicotinamide adenine dinucleotide], the “utilization as a co-factor” value in data set [5] is “utilized”.

Take `N[C@@H](CS)C(=O)O` [cysteine]: the “inhibition of MIOX activity” value in data set [1] was “inhibited”.

In the case of `O=C([O-])[C@@H](O)[C@@H](O)[C@H](O)[C@@H](O)C(=O)[O-].[K+].[K+]` [potassium glucarate], the “E. coli growth and glucose consumption” value in data set [6] is on record as “not observed to be affected”.

In the case of `O=C[C@H](O)[C@@H](O)[C@H](O)[C@H](O)C(=O)[O-].[Na+]` [sodium glucuronate], the “E. coli growth and glucose consumption” value in data set [6] is recorded as “not observed to be affected”.

B1: A. tumefaciens Udh: 6×-His tagged uronate dehydrogenase from A. tumefaciens str. C58 (SEQ ID NO:24), expressed in E. coli and purified (protein, listed as Agrobacterium tumefaciens)
chain: MKRLLVTGAAGQLGRVMRERLAPMAEILRLADLSPLDPAGPNEECVQCDLADANAVNAMVAGCDGIVHLGGISVEKPFEQILQGNIIGLYNLYEAARAHGQPRIVFASSNHTIGYYPQTERLGPDVPARPDGLYGVSKCFGENLARMYFDKFGQETALVRIGSCTPEPNNYRMLSTWFSHDDFVSLIEAVFRAPVLGCPVVWGASANDAGWWDNSHLGFLGWKPKDNAEAFRRHITETTPPPDPNDALVRFQGGTFVDNPIFKQS
modifications: 6xHis tag
For the molecule B1, in data set [7], the “activity after exposure to 37° C. for 30 minutes” value was ~80 % of maximum.
